According to US20260315521A1, “THERAPEUTIC FORMULATIONS FOR KIDNEY DISEASE COMPRISING REPAGERMANIUM OR PROPAGERMANIUM AND/OR AT1R BLOCKERS” (DIMERIX BIOSCIENCE PTY LTD, priority 2023, published 2026):
Like-named read-outs stand apart in the source and are kept apart here.

Experiments:
[1] = biological target: T1, co-stimulated CCR2-AT1R complexes (Homo sapiens, UniProt P30556); assay: Gαi protein dissociation assay (ligand-induced BRET) in HEK293FT cells co-stimulated with AngII and MCP-1/CCL2; assay type: cell-based
T1 construct: HA (haemagglutinin); expressed in transfected cells; host or cells: HEK293FT
From the text: To establish if ARBs maintain their potency for inhibition of Gαi protein activation the potencies of ARBs at AT1R only were correlated with the potency of ARBs at co-stimulated CCR2-AT1R complexes obtained from a Gαi protein dissociation assay (FIG. 2).
HEK293FT cells were transiently transfected by the plasmids coding for Gαi1-Nluc and CCR2-YFP haemagglutinin (HA)-tagged AT1R.
GraphPad Prism (v9.3.1) was then used plot ligand-induced BRET verses ARB concentration and potency (pIC50-values) were obtained by fitting a sigmoidal concentration response curve using non-linear regression function of GraphPad Prism (v9.3.1).
To calculate the potency of sparsentan HEK293FT cells were transiently transfected by the plasmids coding for Gαi1-Rluc8, CCR2-YFP and haemagglutinin (HA)-tagged AT1R. 48 h post-transfection, cells were incubated with substrate for 2 hours before cells were pre-incubated with sparsentan (1 μM) and filtered light emissions were sequentially measured for 1 s in each of the ‘donor wavelength window’ (410-490 nm) and ‘acceptor wavelength window’ (520-620 nm) for 30 minutes.
The potency of ARBs at co-stimulated CCR2-AT1R complexes was then compared to the potency of ARBs at AT1R using the linear regression function of GraphPad Prism (v9.3.1).

[2] = biological target: T2, AT1R (Homo sapiens, UniProt P30556); conditions: pIC50 or pKb from IUPHAR and/or Michel et al (2013), fimasartan from Choung et al 2018; cited from earlier work
T2 sequence (P30556 1-359): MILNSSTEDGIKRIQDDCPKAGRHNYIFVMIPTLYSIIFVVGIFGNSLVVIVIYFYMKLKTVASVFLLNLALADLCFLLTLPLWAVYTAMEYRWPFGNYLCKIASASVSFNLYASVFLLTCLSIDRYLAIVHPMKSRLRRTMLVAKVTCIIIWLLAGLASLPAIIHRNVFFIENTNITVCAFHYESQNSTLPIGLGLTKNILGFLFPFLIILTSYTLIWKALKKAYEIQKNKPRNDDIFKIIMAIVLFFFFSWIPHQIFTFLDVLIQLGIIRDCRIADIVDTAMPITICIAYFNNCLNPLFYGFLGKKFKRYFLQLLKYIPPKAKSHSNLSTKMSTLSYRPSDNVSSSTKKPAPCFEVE

[3] = biological target: T2, AT1R; assay: ARB potency or affinity at AT1R only (public sources: IUPHAR guide to pharmacology, Michel et al 2013, Choung et al 2018); assay type: binding; conditions: reference value
[4] = tested on: angiotensin II-induced cellular responses; conditions: compared with losartan; cited from earlier work
[5] = tested on: chemotactic migration of monocytes by MCP-1; conditions: cited from earlier work
[6] = Population pharmacokinetic analysis of repagermanium (studies DMX-200-101, -202, -203; LC-MS/MS plasma levels); assay type: in vivo, human; conditions: for AUC(0-t) at 24 h: 240 mg/day, read-out: AUC24h, steady state, median; for AUC(0-t) at 24 h / AUC24h, steady state, range: 240 mg total daily dose; for CL/F: po, read-out: Clearance, median (converted)
Method: In all studies blood samples were analyzed using liquid chromatography tandem mass spectrometry (LC-MS/MS). This method involves the addition of deuterated-PPG (d2-PPG) as an internal standard (IS) and liquid-liquid extraction with chloroform for sample processing. The sample is analyzed on an LC-MS/MS system consisting of a Shimadzu LC20AD with Thermo Fisher Hypercarb column using gradient elution and an API 4000 mass spectrometer. The mass spectrometer is operated in the negative electrospray ionization (ESI) ion mode, and used to monitor the precursor to product ion transitions for PPG and d2-PPG, respectively. The lower limit of quantification (LLOQ) was 5 ng/ml.
The pharmacometric analysis was carried out in several steps driven by the suitability of the clinical data for development of the PK model. 1. An initial structural population PK model was developed using data from healthy volunteers (study 101). 2. This model was subsequently updated using the sparse data in patients from studies 202 and 203, and effects of covariates were explored. 3. Model qualification was performed. 4. Finally, the developed model was used for simulations of the influence of covariates on key PK parameters as well as on potential exposures.
The SAS software (version 9.4) was used for preparing the analysis dataset. The population PK analysis was performed using NONMEM (version 7.5.0) and the first order conditional estimation (FOCE) method with interaction. PsN (version≥5.0.0) was used to execute NONMEM runs as well as for running visual predictive checks (VPCs), sampling importance resampling (SIR) and automated step-wise covariate modelling (SCM). The R software (version≥4.0.2) was used for exploratory analysis, creation of goodness of fit (GOF) plots, and summary statistics. Campsis (version 1.1.0), an R-based software application provided by Calvagone, was used for simulations.
The NONMEM version 7.5.0 was used with the GNU Fortran (GCC) compiler version 9.3.0, running on a Ubuntu 20.04 LTS system with Linux kernel version 5.4.0-72-generic on Intel Xeon E5-2640 v3 @ 8 HT 2.60 GHz, using VMWare ESXi 7.0u1 platform with fault tolerance, hosting virtual management server with 8 vCPU; and calculation nodes with Intel Xeon E5-2680 v4 14HT 2.40 GHz. Fortran compiler optimisation options were:-static-w-O3-ffast-math. All software was used in a validated environment.
In the mixed effects modelling the population parameters are categorised as follows: Fixed effects parameters, θ (theta), are used for the structural population parameters (e.g. Ka, CL, V, F, etc.), as well as certain parameters relating the population parameters to the physiological or demographic variables (covariates) included in the analysis. Random effects parameters, n (eta), are used for describing inter-individual variability (IIV) in the fixed effects parameters, and can also be used to describe inter-occasion variability (IOV) if appropriately included in the model. Eta parameters are assumed to be normally distributed random variables with mean zero and variance-covariance matrix Q (omega). The square root of the diagonal elements of this matrix provides the IIV estimates. Off-diagonal elements (if not fixed to zero) are commonly translated to correlations. Random effects parameters, ¿ (epsilon), are used to describe the residual variability. Residual variability includes intra-individual error, analytical error, potential error due to model missspecification and any other error not considered by structural elements such as θ and η. Residual variability parameters are assumed to be normally distributed random variables with mean zero and standard deviation σ (sigma).
Different structural models combined with different residual error models and, if needed, with different estimation methods were applied to identify the most appropriate mixed-effects model. […]

[7] = Effect of different doses of repagermanium on efficacy of treatment (FIG. 1); assay type: in vivo
[8] = tested on: protein to creatinine ratio; assay: Reduction in protein to creatinine ratio as a biomarker of kidney function; assay type: in vivo, human; conditions: 120 mg BID
[9] = study 101, healthy volunteers, oral
[10] = study 202, FSGS patients receiving irbesartan
[11] = study 203, DKD patients receiving irbesartan

T1 sequence (P41597 whole entry partner, one chain of several): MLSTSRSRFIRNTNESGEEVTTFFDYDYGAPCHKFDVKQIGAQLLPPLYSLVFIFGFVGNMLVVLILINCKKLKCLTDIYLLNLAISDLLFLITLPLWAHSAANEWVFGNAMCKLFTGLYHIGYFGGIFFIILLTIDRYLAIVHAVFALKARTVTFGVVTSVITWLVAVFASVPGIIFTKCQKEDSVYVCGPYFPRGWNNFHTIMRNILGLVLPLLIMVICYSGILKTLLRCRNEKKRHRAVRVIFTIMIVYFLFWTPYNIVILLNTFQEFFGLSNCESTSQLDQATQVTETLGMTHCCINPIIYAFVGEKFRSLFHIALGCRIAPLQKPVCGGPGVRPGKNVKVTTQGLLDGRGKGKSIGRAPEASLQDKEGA

CCOc1nc2cccc(C(=O)O)c2n1Cc1ccc(-c2ccccc2-c2nc(=O)o[nH]2)cc1 [Azilsartan]
Potency (pIC50), AT1R-CCR2 ([1]; HEK293FT, 100 nM AngII + 100 nM MCP-1, 30 min ARB pre-incubation): 9.97
Potency (pIC50/pKb), AT1R only [2]: 9.9
Fold decrease in potency, AT1R only [3]: 1.00 fold

CCOc1nc2cccc(C(=O)O)c2n1Cc1ccc(-c2ccccc2-c2nnn[nH]2)cc1 [Candesartan]
Potency (pIC50/pKb), AT1R only [2]: 10
Fold decrease in potency, AT1R only [3]: 1.00 fold

CCCCc1nc(Cl)c(C(=O)O)n1Cc1ccc(-c2ccccc2-c2nn[nH]n2)cc1 [EXP3174]
potency in blocking angiotensin II-induced cellular responses [4]: significantly more potent than losartan

CCCCc1ncc(/C=C(\Cc2cccs2)C(=O)O)n1Cc1ccc(C(=O)O)cc1 [Eprosartan]
Potency (pIC50/pKb), AT1R only [2]: 8.8
Fold decrease in potency, AT1R only [3]: 1.00 fold

CCCCc1nc(C)c(CC(=S)N(C)C)c(=O)n1Cc1ccc(-c2ccccc2-c2nnn[nH]2)cc1 [Fimasartan]
Potency (pIC50/pKb), AT1R only [2]: 8.82^$
Fold decrease in potency, AT1R only [3]: 1.00 fold

CCCCC1=NC2(CCCC2)C(=O)N1Cc1ccc(-c2ccccc2S(=O)(=O)Nc2noc(C)c2C)c(COCC)c1 [Sparsentan, 2-[4-[(2-butyl-4-oxo-1,3-diazaspiro[4.4]non-1-en-3-yl)methyl]-2-(ethoxymethyl)phenyl]-N-(4,5-dimethyl-1,2-oxazol-3-yl)benzenesulfonamide]
Kb ([1]; read-out: Affinity (pKb), AT1R-CCR2 (converted)): 1.74 nM
Potency (pIC50/pKb), AT1R only [2]: 9.1
Fold decrease in potency, AT1R only [3]: 1.00 fold

O=C(O)C[CH2][Ge](=[O])[O][Ge](=[O])[CH2]CC(=O)O [propagermanium, 3-[(2-carboxyethyl-oxogermyl)oxy-oxogermyl] propanoic acid]
inhibition of in vitro chemotactic migration of monocytes by MCP-1 [5]: specifically inhibit in vitro chemotactic migration of monocytes by MCP-1

O=C(O)C[CH2][Ge](=[O])[O][Ge](=[O])[CH2]CC(=O)O [repagermanium, 3-[(2-carboxyethyl-oxogermyl)oxy-oxogermyl]propanoic acid]
blood concentration before the next dose ([6]; 80 mg twice per day): falling too low before the next dose to provide a therapeutic effect
steady state AUC, range ([6]; 120 mg BID): 5000 to 25000 ng·h/mL
AUC(0-t) at 24 h ([6]; human, plasma, study 101, healthy volunteers): 9800 ng·h/mL
AUC(0-t) at 24 h ([6]; human, plasma, study 202, FSGS patients): 16700 ng·h/mL
AUC(0-t) at 24 h ([6]; human, plasma, study 203, DKD patients): 11800 ng·h/mL
CL/F ([6]; human, plasma, study 101, healthy volunteers, oral): 670 mL/min
CL/F ([6]; human, plasma, study 202, FSGS patients receiving irbesartan, 120 mg bid oral): 300 mL/min
CL/F ([6]; human, plasma, study 203, DKD patients receiving irbesartan, 120 mg bid oral): 345 mL/min
AUC ([6]; human, plasma, 120 mg BID, read-out: steady state AUC): ~15000 ng·h/mL
Clearance, range [6, 9]: 24.6 to 60.1 L/h
F (rel. bioavailability), median [6, 9]: 1.6
F (rel. bioavailability), range [6, 9]: 0.7-3.7
AUC24h, steady state, range ([6]; study 101, healthy volunteers): 5500 to 24900 ng·h/mL
F (rel. bioavailability), median [6, 10]: 1.1
F (rel. bioavailability), range [6, 10]: 0.9-1.7
Clearance, range ([6]; study 202, FSGS patients receiving irbesartan, 120 mg bid oral): 4.6 to 36.5 L/h
AUC24h, steady state, range ([6]; study 202, FSGS patients): 7800 to 45200 ng·h/mL
F (rel. bioavailability), median [6, 11]: 1.0
F (rel. bioavailability), range [6, 11]: 0.4-1.9
Clearance, range ([6]; study 203, DKD patients receiving irbesartan, 120 mg bid oral): 5.8 to 47.6 L/h
AUC24h, steady state, range ([6]; study 203, DKD patients): 3900 to 47700 ng·h/mL
therapeutic effect ([7]; 140 mg twice per day): reduced therapeutic effect
efficacy vs repagermanium dose ([7]; different doses, FIG. 1): ‘bell-shaped’ inhibitory curve
protein to creatinine ratio [8]: reduction in protein to creatinine ratio
